According to patent EP0760376A1, “PEPTIDES INHIBITING PHOSPHOLIPASE C” (Kyowa Hakko Kogyo Co., Ltd., priority 1995, dated 1996):
Values after ≈ are worked out from the molar mass of the structure shown. Square brackets hold non-standard residues; d marks the D form. Peptide text beside a SMILES is read from it. * marks the point of attachment. 12Ado = NCCCCCCCCCCCC(=O)O; Aun = NCCCCCCCCCCC(=O)O; Butyryl = CCCC(=O)*

How the values were obtained:
[1] = tested on: Bacillus subtilis No. 10707; format: cell-based; conditions: No. 10707, pH 7
Procedure: (§1) The antibacterial activity was determined by the agar dilution method using a medium (pH 7.0) which comprises 3 g/l Bacto-tryptone (Difco Laboratories), 1 g/l meat extract, 1 g/l glucose and 16 g/l agar.

[2] = target: T1, PLC-γ1 (Bos taurus, UniProt P08487); assay: PLC-inhibiting activity (release of [3H]inositol phosphate from [3H]PIP2); format: biochemical, bovine; conditions: 37°C, 10 minutes, pH 6.0, read-out: Inhibition rate (%)
T1 construct: A sample of PLC-γ1 was prepared from bovine thymus; from tissue; host or cells: bovine thymus
T1 sequence (P08487 1-1291): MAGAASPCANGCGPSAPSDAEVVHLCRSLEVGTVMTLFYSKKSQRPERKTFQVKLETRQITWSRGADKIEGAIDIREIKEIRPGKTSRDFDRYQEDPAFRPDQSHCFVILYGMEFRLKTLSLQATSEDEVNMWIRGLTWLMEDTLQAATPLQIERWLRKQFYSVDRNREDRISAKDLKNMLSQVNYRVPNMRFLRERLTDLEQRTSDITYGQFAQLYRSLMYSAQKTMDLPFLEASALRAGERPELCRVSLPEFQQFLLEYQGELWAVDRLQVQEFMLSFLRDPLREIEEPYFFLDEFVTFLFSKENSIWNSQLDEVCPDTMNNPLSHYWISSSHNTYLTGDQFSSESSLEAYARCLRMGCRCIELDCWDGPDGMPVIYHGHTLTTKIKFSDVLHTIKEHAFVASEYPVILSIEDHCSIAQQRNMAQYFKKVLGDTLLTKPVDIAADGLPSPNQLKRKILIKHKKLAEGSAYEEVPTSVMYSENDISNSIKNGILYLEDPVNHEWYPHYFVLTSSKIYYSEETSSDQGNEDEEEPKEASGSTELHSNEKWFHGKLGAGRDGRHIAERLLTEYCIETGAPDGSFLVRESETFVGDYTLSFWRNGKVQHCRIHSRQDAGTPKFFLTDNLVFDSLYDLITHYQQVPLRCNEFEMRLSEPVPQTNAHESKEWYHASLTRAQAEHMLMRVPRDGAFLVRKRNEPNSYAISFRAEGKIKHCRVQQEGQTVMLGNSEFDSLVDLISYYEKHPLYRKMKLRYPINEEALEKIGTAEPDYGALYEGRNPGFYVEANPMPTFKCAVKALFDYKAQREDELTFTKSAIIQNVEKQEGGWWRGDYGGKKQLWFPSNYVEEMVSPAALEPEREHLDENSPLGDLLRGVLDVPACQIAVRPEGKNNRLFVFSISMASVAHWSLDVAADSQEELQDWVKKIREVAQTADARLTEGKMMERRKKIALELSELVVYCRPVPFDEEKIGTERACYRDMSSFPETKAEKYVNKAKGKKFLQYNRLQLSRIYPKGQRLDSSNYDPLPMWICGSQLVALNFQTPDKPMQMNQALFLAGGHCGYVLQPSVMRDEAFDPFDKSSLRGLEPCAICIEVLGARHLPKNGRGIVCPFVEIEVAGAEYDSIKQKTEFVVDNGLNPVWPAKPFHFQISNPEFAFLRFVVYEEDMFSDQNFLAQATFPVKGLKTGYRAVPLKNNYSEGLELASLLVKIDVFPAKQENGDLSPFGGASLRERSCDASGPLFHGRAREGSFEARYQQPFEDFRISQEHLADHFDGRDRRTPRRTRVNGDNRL
Procedure: A sample of PLC-γ1 was prepared from bovine thymus according to the method described in Y. Honma et al., Biochem. J., 269, 13 (1990). A solution having the composition shown in Table 2 below was prepared on ice and was heated to 37°C to start reaction. After incubation for 10 minutes, 2 ml of a chloroform/methanol mixture (2:1, v/v) was added thereto to stop the reaction. The resulting inositol phosphate was extracted with 0.5 ml of 1 N hydrochloric acid. The extract was separated into two liquid phases by centrifugation (2000 x g, 3 minutes), and the amount of ^3H contained in the supernatant (0.7 ml) was measured with a scintillation counter. Table 2 [table] The inhibition rate (X) was calculated according to the following equation: X (%) = (A-C) / (B-C) x 100 [formula] where A is the obtained value of specific radioactivity, B is the value of specific radioactivity obtained when the same amount of water was added instead of the aqueous solution of the test peptide, and C is the value of specific radioactivity obtained when the same amount of water was added instead of the sample and the aqueous solution of the test peptide.

[3] = tested on: Enterococcus hirae ATCC 10541; assay: Antibacterial activity, agar dilution method; format: cell-based; conditions: pH 7
Procedure: as §1

[4] = tested on: KMS-4 cells; assay: Cell growth-inhibiting activity (BrdU incorporation, cell growth detection kit); format: cell-based; conditions: Concentration 1 µM, culturing with peptide for 17 hours
Procedure: The cell growth-inhibiting activity was determined using a cell growth detection kit (Amersham) in the following manner. KMS-4 cells [M. Nanba et al, International Journal of Cancer, 32, 697 (1983)] were suspended in DMEM medium (Nissui Pharmaceutical Co., Ltd.) containing 10% fetal calf serum at a density of 1-2 x 10^4 cells/ml, and 1 ml of the cell suspension was put into each well of a 24-well plate (Corning Inc.). The cells were cultured in a CO2 incubator (37°C, 5% CO2) for 2 days. Then, the medium was replaced with a fresh DMEM medium containing 10% fetal calf serum, and the test peptide was added thereto, followed by culturing for 17 hours. The medium was replaced with a serum-free DMEM medium, and 0.5 ml of a solution prepared by diluting labeled reagent 5-bromo-2'-deoxyuridine (BrdU) and 5-fluoro-2'-deoxyuridine (FdU) (10:1) 1000-fold with the same medium was added to each well, followed by culturing for 2 hours. Then the medium was removed, and the cells were immobilized with an acetic acid/ethanol solution. The immobilized cells were stained according to the method for the cell growth detection kit of Amersham, and then further stained with a 1% Giemsa solution (Merck & Co., Inc.). The number of cells which incorporated BrdU and the total number of cells within one field of vision of a microscope (approximately 200 cells) were determined, and the proportion (%) of stained cells per field of vision was calculated. The above procedure was repeated 10 times, and the average value thereof was defined as the cell growth activity (%). The cell growth-inhibiting activity was calculated in the following manner. That is, the cell growth inhibition rate was calculated according to the following equation: X (%) = (1-B/A) x 100 [formula] where A is the growth activity when no peptide was added, and B is the growth activity when the test peptide was added.

[5] = tested on: Klebsiella pneumoniae ATCC 10031; assay: Antibacterial activity, agar dilution method; format: cell-based; conditions: medium pH 7.0
Procedure: as §1

[6] = tested on: Proteus vulgaris ATCC 6897; format: cell-based; conditions: ATCC 6897, pH 7
Procedure: as §1

[7] = tested on: Candida albicans ATCC 10231; format: cell-based; conditions: ATCC 10231, pH 7
Procedure: as §1

[8] = tested on: Staphylococcus aureus ATCC 6538P; format: cell-based; conditions: pH 7
Procedure: as §1

[9] = tested on: Pseudomonas aeruginosa Bin H No. 1; format: cell-based; conditions: Bin H No. 1, pH 7
Procedure: as §1

Row | MIC (µg/ml) BS [1] [µg/mL] | inhibition at 116 µM ([2]; Concentration 116 µM (aqueous solution of test peptide provided for the test)) [%] | MIC (µg/ml) EH [3] [µg/mL] | MIC (µg/ml) KP [5] [µg/mL] | MIC (µg/ml) PV [6] [µg/mL] | MIC (µg/ml) CA [7] [µg/mL] | MIC (µg/ml) SA [8] [µg/mL] | MIC (µg/ml) PA [9] [µg/mL] | inhibition at 23 µM ([2]; Concentration 23 µM (aqueous solution of test peptide provided for the test)) [%] | Compound | Inhibition rate (%) [4] [%]
1 | 43 (≈ 25 µM) | 85 | 171 (≈ 99.5 µM) | 43 (≈ 25 µM) | 43 (≈ 25 µM) | 171 (≈ 99.5 µM) | 171 (≈ 99.5 µM) | 85 (≈ 49.4 µM) | – | CSCC[C@H](NC(=O)[C@H](CCCCN)NC(=O)[C@H](CCCNC(=N)N)NC(=O)[C@H](Cc1ccc(O)cc1)NC(=O)[C@H](CC(C)C)NC(C)=O)C(=O)N[C@@H](CCCNC(=N)N)C(=O)N[C@@H](CC(C)C)C(=O)N[C@@H](CCCNC(=N)N)C(=O)N[C@@H](Cc1ccc(O)cc1)C(=O)N1CCC[C@H]1C(=O)N[C@H](C(=O)NCCCCCCCCCCC(N)=O)C(C)C [Compound (I-6), CH3CO-Leu-Tyr-Arg-Lys-Met-Arg-Leu-Arg-Tyr-Pro-Val-NH-(CH2)10CONH2] (Ac-LYRKMRLRYPV[Aun]-NH2) | 57
2 | 50 (≈ 28.4 µM) | – | – | – | 100 (≈ 56.8 µM) | – | 200 (≈ 114 µM) | 200 (≈ 114 µM) | 73 | CCCC(=O)N[C@@H](CC(C)C)C(=O)N[C@@H](Cc1ccc(O)cc1)C(=O)N[C@@H](CCCNC(=N)N)C(=O)N[C@@H](CCCCN)C(=O)N[C@@H](CCSC)C(=O)N[C@@H](CCCNC(=N)N)C(=O)N[C@@H](CC(C)C)C(=O)N[C@@H](CCCNC(=N)N)C(=O)N[C@@H](Cc1ccc(O)cc1)C(=O)N1CCC[C@H]1C(=O)N[C@H](C(=O)NCCCCCCCCCCCC(N)=O)C(C)C [Compound (I-9), C3H7CO-Leu-Tyr-Arg-Lys-Met-Arg-Leu-Arg-Tyr-Pro-Val-NH-(CH2)11CONH2] (Butyryl-LYRKMRLRYPV[12Ado]-NH2) | –
